Results published in ChEMBL document CHEMBL5104094, “Chemistry, biosynthesis and biological activity of terpenoids and meroterpenoids in bacteria and fungi isolated from different marine habitats” (Eur J Med Chem, 2021).
≈ marks a conversion by molar mass, not a printed value.

Columns and labels:
MCF7 = test: Cytotoxicity against human MCF7 cells assessed as cell growth inhibition by MTT assay; format: functional, cell-based
[1] = molecular target: Platelet-activating factor receptor (Homo sapiens, UniProt P25105); test: Antagonist activity at PAFR (unknown origin); format: functional
Platelet-activating factor receptor, sequence (P25105 whole entry): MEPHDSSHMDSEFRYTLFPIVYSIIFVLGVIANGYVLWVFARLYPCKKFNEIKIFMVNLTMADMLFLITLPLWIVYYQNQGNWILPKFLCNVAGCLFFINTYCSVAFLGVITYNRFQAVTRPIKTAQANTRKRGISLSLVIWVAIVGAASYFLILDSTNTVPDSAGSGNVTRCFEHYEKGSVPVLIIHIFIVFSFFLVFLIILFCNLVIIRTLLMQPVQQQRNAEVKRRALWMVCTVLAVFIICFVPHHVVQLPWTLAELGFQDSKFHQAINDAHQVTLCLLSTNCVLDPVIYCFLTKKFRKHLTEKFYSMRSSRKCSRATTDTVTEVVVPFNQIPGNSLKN

HCT-116 [2] = test: Cytotoxicity against human HCT-116 cells assessed as cell growth inhibition incubated for 72 hrs by CellTiter 96 Aqueous One Solution Cell Proliferation assay; format: functional, cell-based; settings: HCT-116, 72 h
HCT-116 [3] = test: Cytotoxicity against human HCT-116 cells assessed as cell growth inhibition by MTT assay; format: functional, cell-based
[4] = test system: Mycolicibacterium smegmatis; test: Antibiofilm activity against Mycobacterium smegmatis assessed as inhibition of biofilm formation incubated for 4 days; format: functional; settings: 96 h, time 4 day
HL-60 = test: Inhibition of cell adhesion of human HL-60 cells to human LPS-stimulated HUVEC cells incubated for 4 hrs with HUVEC cells followed by MTT-labeled HL-60 cells addition measured after 40 mins by absorbance based microplate reader analysis; format: functional
[5] = Inhibition of Influenza virus neuraminidase; design: species or system unidentified influenza virus
RAW264.7 = test: Antiinflammatory activity in LPS-stimulated mouse RAW264.7 cells assessed as inhibition of NO production incubated for 2 hrs followed by LPS stimulation measured after 48 hrs […]; format: functional, cell-based
[6] = test system: Panel NCI-60 (60 carcinoma cell lines); test: Cytotoxicity against human Panel NCI-60 (60 carcinoma cell lines) assessed as cell growth inhibition; format: functional, cell-based
HCT-116 [7] = test: Cytotoxicity against human HCT-116 cells assessed as cell growth inhibition; format: functional, cell-based
[8] = molecular target: T1, M-phase inducer phosphatase 2 (Homo sapiens, UniProt P30305); test: Inhibition of recombinant human CDC25B expressed in Escherichia coli using pnitrophenyl phosphate as substrate preincubated for 15 mins followed by substrate addition measured after 60 mins by absorbance based assay
T1 sequence (P30305 whole entry): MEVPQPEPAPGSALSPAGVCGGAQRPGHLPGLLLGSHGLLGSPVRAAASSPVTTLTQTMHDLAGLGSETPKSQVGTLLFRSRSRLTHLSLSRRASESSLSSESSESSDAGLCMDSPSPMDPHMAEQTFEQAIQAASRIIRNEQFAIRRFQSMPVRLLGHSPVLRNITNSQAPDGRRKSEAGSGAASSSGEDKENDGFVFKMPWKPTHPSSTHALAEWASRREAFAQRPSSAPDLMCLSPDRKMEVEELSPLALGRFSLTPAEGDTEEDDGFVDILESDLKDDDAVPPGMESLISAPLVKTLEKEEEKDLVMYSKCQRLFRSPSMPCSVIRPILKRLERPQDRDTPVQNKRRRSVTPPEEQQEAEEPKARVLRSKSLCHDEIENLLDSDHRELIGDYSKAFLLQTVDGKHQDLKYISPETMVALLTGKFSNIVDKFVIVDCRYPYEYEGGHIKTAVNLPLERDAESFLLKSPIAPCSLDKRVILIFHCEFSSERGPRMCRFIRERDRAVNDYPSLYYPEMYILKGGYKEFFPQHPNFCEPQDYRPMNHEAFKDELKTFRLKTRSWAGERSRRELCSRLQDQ

[9] = molecular target: Tyrosine-protein phosphatase non-receptor type 6 (Homo sapiens, UniProt P29350); test: Inhibition of recombinant human SHP1 expressed in Escherichia coli using pnitrophenyl phosphate as substrate preincubated for 15 mins followed by substrate addition measured after 60 mins by absorbance based assay
Tyrosine-protein phosphatase non-receptor type 6, sequence (P29350 whole entry): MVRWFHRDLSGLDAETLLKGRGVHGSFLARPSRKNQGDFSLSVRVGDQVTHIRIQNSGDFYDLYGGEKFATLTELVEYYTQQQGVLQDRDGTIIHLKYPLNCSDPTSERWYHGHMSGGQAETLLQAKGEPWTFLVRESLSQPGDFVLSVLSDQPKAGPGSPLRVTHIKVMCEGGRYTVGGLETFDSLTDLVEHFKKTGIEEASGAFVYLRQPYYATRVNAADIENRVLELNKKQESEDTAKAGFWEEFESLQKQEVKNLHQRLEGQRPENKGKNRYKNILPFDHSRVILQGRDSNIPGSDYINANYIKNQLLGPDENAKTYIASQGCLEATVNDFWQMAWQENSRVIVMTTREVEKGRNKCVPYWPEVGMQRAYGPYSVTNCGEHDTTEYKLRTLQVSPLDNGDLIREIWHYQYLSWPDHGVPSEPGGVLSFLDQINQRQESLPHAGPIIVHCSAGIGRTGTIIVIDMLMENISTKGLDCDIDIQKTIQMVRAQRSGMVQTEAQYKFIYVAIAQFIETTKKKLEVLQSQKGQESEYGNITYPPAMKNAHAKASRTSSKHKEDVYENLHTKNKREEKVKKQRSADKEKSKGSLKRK

C=C[C@]1(C)C=C2C(=O)C(O)=C3C(C)(C)CCC[C@]3(C)[C@@]2(O)CC1
IC50 (MCF7): 35.9 µM

C/C1=C\CC[C@]2(C)O[C@@H]3C[C@@H](C)[C@@](C)(CC1)C1=C3[C@](O)(OC1)[C@H]2O
IC50 [1]: 2.8 µM

C=C1CC[C@H](Cl)C(C)(C)[C@@H]1C[C@@]12OC(C)(C)[C@H](Cl)C[C@]1(Cl)C(=O)C1=C(C2=O)C(=[N+]=[N-])C(=O)C(C)=C1O
IC50 (HCT-116 [2]): 0.5 µM

CC(C)=CCn1c2ccc(Br)c(=O)c-2nc2ccccc21
IC50 (HCT-116 [3]): 0.029 µM

CC(C)=C/C=C\[C@H](C)[C@H]1CC[C@]2(C)C[C@H]3[C@H](C(=O)C[C@@]3(C)O)/C(C=O)=C\C[C@@H]12
MIC [4]: 25 µg/mL (≈ 64.9 µM)

CC(C)=C/C=C\[C@H](C)[C@H]1CC[C@]2(C)C[C@@H]3C(C)=CC(=O)[C@@H]3/C(C=O)=C\C[C@@H]12
MIC [4]: 6.23 µg/mL (≈ 17 µM)

C=C[C@@]1(C)CCC2=C([C@H]1O)[C@H](O)[C@]1(O)OC[C@@]23CCCC(C)(C)[C@@]31O
IC50 (MCF7): > 70 µM

C=C(CO)[C@@]1(O)[C@@H](O)[C@@]2(C)[C@H](CCC[C@@H]2C)C[C@@H]1O
IC50 (HL-60): 15.6 µM

C=C1[C@]23C(=O)O[C@@H](C)[C@@]2(O)C(=O)O[C@@]1(C)[C@H](O)C1=C(C)[C@@]2(C=CC(=O)OC2(C)C)CC[C@]13C
IC50 [5]: 1.37 µM

C=C1[C@@H](OC(C)=O)[C@@H]2[C@](C)(C(=O)C(O)=C3C(C)(C)C(=O)CC[C@]32C)[C@]2(C(=O)OC)C(=O)[C@@H](C)OC(=O)[C@]12C
IC50 (RAW264.7): 13.4 µM

C=C1[C@@H](OC(C)=O)[C@@H]2[C@](C)(C(=O)C(O)=C3C(C)(C)C(=O)C=C[C@]32C)[C@]2(C(=O)OC)C(=O)[C@@H](C)OC(=O)[C@]12C
IC50 (RAW264.7): 13.4 µM

C=C1COC(OC)[C@@]12C[C@H]1C[C@H](O)C[C@H](C)[C@@]1(C)C2 (stereo not given in full)
IC50 (HL-60): 11.5 µM

C[C@H]1CC[C@@]23C1=C[C@@]1(C)CC[C@](C)(C[C@H](O)C(=O)[C@@](C)(O)CO)[C@H]1[C@@H]2CC[C@@H]3C
IC50 [6]: 18 µM

C=C[C@]1(C)C=C2C(=O)C(O)=C3C(C)(C)CC[C@@H](O)[C@]3(C)[C@@]2(O)CC1
IC50 (HCT-116 [7]): 15 µM

C[C@@H]1[C@@H](O)C=C2C(=O)[C@H]3O[C@@]3(C)CCC[C@H]3O[C@@]3(C)C[C@]1(C)[C@@]2(C)O
IC50 [1]: 2.8 µM

C[C@H]1CC[C@@]23C1=C[C@@]1(C)CC[C@](C)(C[C@H](O)[C@H](O)C(C)(C)O)[C@H]1[C@@H]2CC[C@@H]3C
IC50 [6]: 18 µM

C=C1[C@]23C(=O)O[C@@H](C)[C@@]2(O)C(=O)O[C@@]1(C)[C@H](OC(C)=O)C1=C(C)[C@@]2(C=CC(=O)OC2(C)C)CC[C@]13C
IC50 [5]: 1.37 µM

C/C1=C\CC[C@@H]2O[C@H]2C(=O)C2=CC[C@@H](C)[C@@](C)(C[C@@H]1O)[C@@H]2C
IC50 [1]: 2.8 µM

COC(=O)[C@]12[C@](C)(C(=O)[C@@]1(C)O)C(C)=C[C@H]1[C@]34CC[C@H](OC(C)=O)C(C)(C)[C@H]3[C@H](C[C@@]12C)OC4=O
IC50 [8]: 18 µM | IC50 [9]: 23 µM

C[C@@H]1CC=C2C(=O)[C@H]3O[C@]3(C)CC[C@@H]3O[C@@]3(C)CC[C@@]1(C)[C@@]2(C)O
IC50 [1]: 2.8 µM

C=C1CC[C@H](Cl)C(C)(C)[C@@H]1C[C@@]12OC(C)(C)[C@H](Cl)C[C@@]1(Cl)C(=O)c1c(cc(O)c(C)c1O)C2=O
IC50 (HCT-116 [2]): 3 µM

C=C1C2=CC[C@@H](C)[C@@]1(C)CC/C(C)=C/CC[C@H]1O[C@@H]1C2=O
IC50 [1]: 2.5 µM

C=C[C@]1(C)C=C2C(=O)C(O)=C3[C@](C)(CO)CC[C@@H](O)[C@]3(C)[C@@]2(O)CC1
IC50 (HCT-116 [7]): 53 µM

C=C[C@]1(C)C=C2C(=O)C(O)=C3C(C)(C)[C@@H](O)CC[C@]3(C)[C@@]2(O)[C@H](O)C1
IC50 (MCF7): > 70 µM

COC(=O)c1c(C)cc2c(c(C)c1=O)O[C@@]1(C)CC[C@H]3C(C)(C)OC(=O)C=C[C@]3(C)[C@@H]1C2
IC50 (HCT-116 [7]): 13.9 µM

COC(=O)c1c(C)cc2c(c(C)c1=O)O[C@@]1(C)CC[C@H]3C(C)(C)OC(=O)C[C@@H](O)[C@]3(C)[C@@H]1C2
IC50 (HCT-116 [7]): 13.2 µM

C=C1[C@@]2(CCC(=O)OC2(C)C)C[C@H](OC(=O)/C(C)=C/C)[C@@]2(C)[C@]34C(=C)[C@@]5(C)OC(=O)[C@@]3(O[C@@]12[C@H]5OC(C)=O)[C@H](C)OC4=O
IC50 [5]: 1.37 µM

COC(=O)c1c(C)cc2c(c(C)c1=O)O[C@@]1(C)CC[C@H]3C(C)(C)OC(=O)C[C@@H](OC(C)=O)[C@]3(C)[C@@H]1C2
IC50 (HCT-116 [7]): 10.9 µM

C=C1[C@@]2(CCC(=O)OC2(C)C)C[C@H](OC(=O)c2ccccc2)[C@@]2(C)[C@@]34C(=O)O[C@@H](C)[C@@]35O[C@@]12[C@@H](OC(C)=O)[C@](C)(OC5=O)C4=O
IC50 [5]: 1.37 µM

COC(=O)[C@@]12C(=O)[C@@](C)(O)[C@]1(C)C(C)=C[C@H]1[C@]34CC[C@H](OC(C)=O)C(C)(C)[C@H]3[C@H](C[C@@]12C)OC4=O
IC50 [8]: 19 µM | IC50 [9]: 34 µM

C=C1C23O[C@@]45C(=O)O[C@](C)(C(=C)[C@@]4(C(=O)O[C@H]5C)[C@]2(C)[C@@H](OC(=O)c2ccccc2)C[C@]12CCC(=O)OC2(C)C)[C@@H]3OC(C)=O
IC50 [5]: 1.37 µM

COC(=O)[C@@]12C(=O)[C@](C)(O)C(=O)[C@@H](C(C)=C1C)C1[C@]2(C)C[C@@H]2OC(=O)[C@]13CC[C@H](OC(C)=O)C(C)(C)[C@@H]23 (stereo not given in full)
IC50 [8]: 20 µM | IC50 [9]: 22 µM

C=C(CO)[C@]1(O)[C@@H](O)[C@@]2(C)[C@H](CCC[C@@H]2C)C[C@@H]1O
IC50 (HL-60): 20.7 µM

C[C@H]1C[C@@H](O)[C@@]23C1=C[C@@]1(C)CC[C@](C)(C[C@H](O)[C@H](O)C(C)(C)O)[C@H]1[C@@H]2CC[C@@H]3C
IC50 [6]: 18 µM

C=C[C@]1(C)C=C2C(=O)C(O)=C3C(C)(C)[C@@H](O)CC[C@]3(C)[C@@]2(O)CC1
IC50 (MCF7): 25.6 µM

C=C[C@]1(C)C=C2C(=O)C(O)=C3[C@](C)(CO)CC=C[C@]3(C)[C@@]2(O)CC1
IC50 (HCT-116 [7]): 15 µM

C=C[C@@]1(C)CCC2=C([C@H](O)C(=O)[C@@]3(O)C(C)(C)CCC[C@]23C)[C@H]1O
IC50 (MCF7): > 70 µM

C[C@H]1CC[C@@]23C1=C[C@@]1(C)CC[C@](C)(C[C@H](O)[C@H](O)C4(C)CO4)[C@H]1[C@@H]2CC[C@@H]3C (stereo not given in full)
IC50 [6]: 18 µM

C=C1[C@@]2(CCC(=O)OC2(C)C)CC[C@@]2(C)[C@]34C(=C)[C@@]5(C)OC(=O)[C@@]3(O[C@@]12[C@H]5O)[C@H](C)OC4=O
IC50 [5]: 1.37 µM

C=C1C2=CC[C@@H](C)[C@]1(C)CC[C@]1(C)O[C@H]1CC[C@@]1(C)O[C@@H]1C2=O
IC50 [1]: 2.8 µM

C[C@H]1CC[C@@]23C1=C[C@@]1(C)CC[C@](C)(C[C@H](O)[C@H](O)[C@@](C)(O)CO)[C@H]1[C@@H]2CC[C@@H]3C
IC50 [6]: 18 µM

C[C@H]1C[C@@H](O)[C@@]23C1=C[C@@]1(C)CC[C@](C)(C[C@H](O)[C@H](O)[C@@](C)(O)CO)[C@H]1[C@@H]2CC[C@@H]3C
IC50 [6]: 18 µM

C=C1[C@@H](OC(C)=O)[C@H]2[C@]3(C)[C@H]4CC(=O)C(C)(C)[C@]43C(=O)[C@]3(O)OC4=C(C)OC(=O)[C@@]1(C)[C@]4(C(=O)OC)[C@]23C
IC50 (RAW264.7): 13.4 µM

C[C@H]1CC[C@@]23C1=C[C@@]1(C)CC[C@](C)(C[C@H](O)[C@H](O)[C@@](C)(O)CO)[C@H]1[C@@H]2C[C@@H](O)[C@@H]3C
IC50 [6]: 18 µM

C[C@@H]1CC=C2C(=O)[C@H]3O[C@]3(C)CC[C@@H]3O[C@@]3(C)CC[C@@]1(C)[C@@H]2C
IC50 [1]: 2.8 µM

COc1ccc2c(c1)c(CC(=O)O)c(C)n2C(=O)c1ccc(Cl)cc1 [INDOMETHACIN]
IC50 (RAW264.7): 24 µM

CCOC(=O)C1=C[C@@H](OC(CC)CC)[C@H](NC(C)=O)[C@@H](N)C1 [OSELTAMIVIR]
IC50 [5]: 0.99 µM
